Molecular target: T1, RORc ligand binding domain (Homo sapiens, UniProt P51449)
T1 construct: host or cells: E. coli
T1 sequence (P51449 269-508 limits assumed): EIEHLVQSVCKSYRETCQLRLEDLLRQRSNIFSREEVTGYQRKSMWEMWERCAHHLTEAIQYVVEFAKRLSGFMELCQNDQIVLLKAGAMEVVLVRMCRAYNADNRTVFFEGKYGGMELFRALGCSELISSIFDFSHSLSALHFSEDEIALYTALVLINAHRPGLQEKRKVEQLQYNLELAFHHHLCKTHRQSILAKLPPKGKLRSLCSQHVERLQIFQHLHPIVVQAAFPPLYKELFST
Assay: In vitro RORc ligand binding assay (25-[3H]hydroxycholesterol displacement, filter binding)
Conditions: 6 nM 25-[3H]hydroxycholesterol, 0.6 ug/mL RORc receptor, 3 h at 25° C.
How it was run: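 Compounds in 5% DMSO, either dose-response or screened at 1 and 10 uM, competed with 6 nM 25-[3H]hydroxycholesterol for 0.6 ug/mL RORc over 3 h at 25° C (HEPES pH 7.4, NaCl, MgCl2, DTT, BSA buffer). Bound tracer was filter-harvested and counted; nonspecific binding came from 1 uM 25-hydroxycholesterol.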

| IC50 | SMILES |
| --- | --- |
| 944 nM | CN(C)C(=O)N(C)[C@@]12CC[C@@H](c3cc(-c4c(F)cccc4F)nnc31)C2(C)C [Example 325, 1-((5R,8R)-3-(2,6-difluorophenyl)-9,9-dimethyl-5,6,7,8-tetrahydro-5,8-methanocinnolin-8-yl)-1,3,3-trimethylurea] |
| 1120 nM | CN(C)C1CN(C(=O)[C@]23CC[C@H](c4cc(-c5c(F)cccc5F)nnc42)C3(C)C)C1 [Example 79, [(5S,8S)-3-(2,6-difluorophenyl)-9,9-dimethyl-6,7-dihydro-5,8-methanocinnolin-8(5H)-yl][3-(dimethylamino)azetidin-1-yl]methanone] |
| 1230 nM | CC1(C)[C@@H]2CC[C@@]1(C(=O)NC1CCCC1)c1nnc(-c3c(F)cccc3F)cc12 [Example 206, (5S,8S)-N-cyclopentyl-3-(2,6-difluorophenyl)-9,9-dimethyl-5,6,7,8-tetrahydro-5,8-methanocinnoline-8-carboxamide] |
| 1460 nM | CC1(C)[C@H]2CC[C@]1(C(N)=O)c1nnc(-c3c(F)cccc3F)cc12 [Example 77, (5R,8R)-3-(2,6-difluorophenyl)-9,9-dimethyl-6,7-dihydro-5,8-methanocinnoline-8(5H)-carboxamide] |
| 195 nM | CC1(C)[C@@H]2CC[C@@]1(c1nnc(CO)o1)c1nnc(-c3c(F)cccc3F)cc12 [Example 111, {5-[(5S,8S)-3-(2,6-difluorophenyl)-9,9-dimethyl-6,7-dihydro-5,8-methanocinnolin-8(5H)-yl]-1,3,4-oxadiazol-2-yl}methanol] |
| 498 nM | CC1(C)CCN(C(=O)[C@]23CC[C@H](c4cc(-c5c(F)cccc5F)nnc42)C3(C)C)C1 [Example 237, ((5S,8S)-3-(2,6-difluorophenyl)-9,9-dimethyl-5,6,7,8-tetrahydro-5,8-methanocinnolin-8-yl)(3,3-dimethylpyrrolidin-1-yl)methanone] |
| 144 nM | CC1(C)[C@@H]2CC[C@@]1(C(=O)N1CC3COCC3C1)c1nnc(-c3c(F)cccc3F)cc12 (stereo partly drawn) [Example 217, ((5S,8S)-3-(2,6-difluorophenyl)-9,9-dimethyl-5,6,7,8-tetrahydro-5,8-methanocinnolin-8-yl)(tetrahydro-1H-furo[3,4-c]pyrrol-5(3H)-yl)methanone] |
| 238 nM | Cc1noc(C[C@]23CC[C@H](c4cc(-c5ccccc5F)nnc42)C3(C)C)n1 [Example 42, (5S,8S)-3-(2-fluorophenyl)-9,9-dimethyl-8-[(3-methyl-yl)methyl]-5,6,7,8-tetrahydro-5,8-methanocinnoline] |
| 866 nM | CC1(C)[C@@H]2CC[C@@]1(N1CCOC1=O)c1nnc(-c3c(F)cccc3F)cc12 [Example 254, 3-((5S,8S)-3-(2,6-difluorophenyl)-9,9-dimethyl-5,6,7,8-tetrahydro-5,8-methanocinnolin-8-yl)oxazolidin-2-one] |
| 3120 nM | CC1(C)[C@@H]2CC[C@@]1(C(=O)N1CCC(C(N)=O)C1)c1nnc(-c3c(F)cccc3F)cc12 (stereo partly drawn) [Example 249, 1-((5S,8S)-3-(2,6-difluorophenyl)-9,9-dimethyl-5,6,7,8-tetrahydro-5,8-methanocinnoline-8-carbonyl)pyrrolidine-3-carboxamide] |
| 136 nM | Cc1nc([C@@]23CC[C@@H](c4cc(-c5c(F)cccc5F)nnc42)C3(C)C)no1 [Example 80, (5R,8R)-3-(2,6-difluorophenyl)-9,9-dimethyl-8-(5-methyl-1,2,4-oxadiazol-3-yl)-5,6,7,8-tetrahydro-5,8-methanocinnoline] |
| 74 nM | CC1(C)[C@@H]2CC[C@@]1(CNCC(F)F)c1nnc(-c3c(F)cccc3F)cc12 [Example 328, N-(((5S,8R)-3-(2,6-difluorophenyl)-9,9-dimethyl-5,6,7,8-tetrahydro-5,8-methanocinnolin-8-yl)methyl)-2,2-difluoroethanamine] |
| 301 nM | COC(=O)N(C)[C@@]12CC[C@@H](c3cc(-c4c(F)cccc4F)nnc31)C2(C)C [Example 274, methyl ((5R,8R)-3-(2,6-difluorophenyl)-9,9-dimethyl-5,6,7,8-tetrahydro-5,8-methanocinnolin-8-yl)(methyl)carbamate] |
| 2460 nM | COC1CN(C(=O)[C@@]23CC[C@@H](c4cc(-c5c(F)cccc5F)nnc42)C3(C)C)C1 [Example 188, ((5R,8R)-3-(2,6-difluorophenyl)-9,9-dimethyl-5,6,7,8-tetrahydro-5,8-methanocinnolin-8-yl)(3-methoxyazetidin-1-yl)methanone] |
| 31 nM | Cc1nnc([C@@]23CC[C@@H](c4cc(-c5c(F)cccc5F)nnc42)C3(C)C)o1 [Example 67, (5R,8R)-3-(2,6-difluorophenyl)-9,9-dimethyl-8-(5-methyl-1,3,4-oxadiazol-2-yl)-5,6,7,8-tetrahydro-5,8-methanocinnoline] |
| 454 nM | C[C@@H]1CN(C[C@@]23CC[C@@H](c4cc(-c5c(F)cccc5F)nnc42)C3(C)C)C(=O)O1 [Example 314, (R)-3-(((5R,8S)-3-(2,6-difluorophenyl)-9,9-dimethyl-5,6,7,8-tetrahydro-5,8-methanocinnolin-8-yl)methyl)-5-methyloxazolidin-2-one] |
| 280 nM | CC1(C)[C@H]2CC[C@]1(C)c1nnc(Oc3c(F)cccc3F)cc12 [Example 99, (5R,8S)-3-(2,6-difluorophenoxy)-8,9,9-trimethyl-5,6,7,8-tetrahydro-5,8-methanocinnoline] |
| 2140 nM | CNC(=O)[C@@H]1[C@@H]2CN(C(=O)[C@]34CC[C@H](c5cc(-c6c(F)cccc6F)nnc53)C4(C)C)C[C@@H]21 [Example 212, (1R,5S,6R)-3-((5S,8S)-3-(2,6-difluorophenyl)-9,9-dimethyl-5,6,7,8-tetrahydro-5,8-methanocinnoline-8-carbonyl)-N-methyl-3-azabicyclo[3.1.0]hexane-6-carboxamide] |
| 5190 nM | CC(C)C(=O)N[C@@]12CC[C@@H](c3cc(-c4ccccc4F)nnc31)C2(C)C [Example 87, N-[(5R,8R)-3-(2-fluorophenyl)-9,9-dimethyl-6,7-dihydro-5,8-methanocinnolin-8(5H)-yl]-2-methylpropanamide] |
| 2330 nM | CC(C)(C)OC(=O)N[C@]12CC[C@H](c3cc(-c4c(F)cccc4F)nnc31)C2(C)C [Example 256, tert-butyl ((5S,8S)-3-(2,6-difluorophenyl)-9,9-dimethyl-5,6,7,8-tetrahydro-5,8-methanocinnolin-8-yl)carbamate] |
| 189 nM | CCN(C(=O)CO)C(C)(C)[C@@]12CC[C@@H](c3cc(-c4c(F)cccc4F)nnc31)C2(C)C [Example 271, N-(2-((5R,8S)-3-(2,6-difluorophenyl)-9,9-dimethyl-5,6,7,8-tetrahydro-5,8-methanocinnolin-8-yl)propan-2-yl)-N-ethyl-2-hydroxyacetamide] |
| 22 nM | CC1(C)[C@@H]2CC[C@@]1(COCc1ccccc1)c1nnc(-c3c(F)cccc3Cl)cc12 [Example 21, (5S,8S)-8-[(benzyloxy)methyl]-3-(2-chloro-6-fluorohenyl)-9,9-dimethyl-5,6,7,8-tetrahydro-5,8-methanocinnoline] |
| 23 nM | CC1(C)[C@H]2CC[C@]1(c1cccnc1)c1nnc(-c3c(F)cccc3F)cc12 [Example 154, (5R,8S)-3-(2,6-difluorophenyl)-9,9-dimethyl-8-(pyridin-3-yl)-5,6,7,8-tetrahydro-5,8-methanocinnoline] |
| 1530 nM | Cc1nn(C)/c(=N\[C@@]23CC[C@@H](c4cc(-c5ccccc5F)nnc42)C3(C)C)o1 [Example 229, (5R,8R,E)-N-(3,5-dimethyl-1,3,4-oxadiazol-2(3H)-ylidene)-3-(2-fluorophenyl)-9,9-dimethyl-5,6,7,8-tetrahydro-5,8-methanocinnolin-8-amine] |
| 612 nM | CC1(C)[C@@H]2CC[C@@]1(C(=O)N1CC3(CCCO3)C1)c1nnc(-c3c(F)cccc3F)cc12 [Example 221, ((5S,8S)-3-(2,6-difluorophenyl)-9,9-dimethyl-5,6,7,8-tetrahydro-5,8-methanocinnolin-8-yl)(5-oxa-2-azaspiro[3.4]octan-2-yl)methanone] |
| 214 nM | Cc1nnc(N(Cc2ccccc2)C[C@@]23CC[C@@H](c4cc(-c5c(F)cccc5F)nnc42)C3(C)C)o1 [Example 266, N-benzyl-N-(((5R,8S)-3-(2,6-difluorophenyl)-9,9-dimethyl-5,6,7,8-tetrahydro-5,8-methanocinnolin-8-yl)methyl)-5-methyl-1,3,4-oxadiazol-2-amine] |
| 54 nM | COCCN(C[C@@]12CC[C@@H](c3cc(-c4c(F)cccc4F)nnc31)C2(C)C)c1nnc(C)o1 [Example 149, N-(((5R,8S)-3-(2,6-difluorophenyl)-9,9-dimethyl-5,6,7,8-tetrahydro-5,8-methanocinnolin-8-yl)methyl)-N-(2-methoxyethyl)-5-methyl-1,3,4-oxadiazol-2-amine] |
| 158 nM | CC1(C)[C@@H]2CC[C@@]1(COCc1ccc(C(N)=O)cc1)c1nnc(-c3ccccc3F)cc12 [Example 72, 4-({[(5S,8S)-3-(2-fluorophenyl)-9,9-dimethyl-6,7-dihydro-5,8-methanocinnolin-8(5H)-yl]methoxy}methyl) benzamide] |
| 1140 nM | CC1(C)[C@@H]2CC[C@@]1(C(=O)N1C3CCC1CC(O)C3)c1nnc(-c3c(F)cccc3F)cc12 (stereo partly drawn) [Example 261, ((5S,8S)-3-(2,6-difluorophenyl)-9,9-dimethyl-5,6,7,8-tetrahydro-5,8-methanocinnolin-8-yl)(3-hydroxy-8-azabicyclo[3.2.1]octan-8-yl)methanone] |

— US9981916B2 (Genentech, Inc., priority 2013, dated 2018)
